As usually defined, the EC50 is the concentration at which the effect is half-maximal. A word on the CC50: it is the concentration that lowers cell viability or growth by half.

The nature of experiment [1]: fluconazole-exposed Candida albicans growth modulators – fluorescence, retest, confirmation (AID 2467). Type of experiment: functional, cell-based.
Experiment [2] deals with ATP-dependent molecular chaperone HSP82 (Candida albicans (strain WO-1) (Yeast), UniProt C4YTQ8). Nature of the experiment: steroid-induced GRE reporter decrease in yeast – S. cerevisiae, luminescence, Hsp90 inhibitor project, dose response (AID 2400).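 Further: beta-galactosidase luminescence from glucocorticoid response element reporter as proxy for Hsp90 function; inhibitor potency where signal loss means Hsp90 inhibition.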 Type of experiment: functional, cell-based.
Experiment [3] in a line: NIH-3T3 fibroblast cytotoxicity, dose response, cytotoxicity control, cell-based, fluorescence, Alamar Blue, secondary assay (AID 2327).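 Further: NIH-3T3 mouse fibroblasts cultured with fluconazole at 8 µg/mL.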 It counts as functional.
In experiment [4] the target is T1, Serine/threonine-protein phosphatase (Candida dubliniensis (strain CD36 / CBS 7987 / NCPF 3949 / NRRLY-17841) (Yeast), UniProt B9W6M3).
T1 sequence (B9W6M3 whole entry): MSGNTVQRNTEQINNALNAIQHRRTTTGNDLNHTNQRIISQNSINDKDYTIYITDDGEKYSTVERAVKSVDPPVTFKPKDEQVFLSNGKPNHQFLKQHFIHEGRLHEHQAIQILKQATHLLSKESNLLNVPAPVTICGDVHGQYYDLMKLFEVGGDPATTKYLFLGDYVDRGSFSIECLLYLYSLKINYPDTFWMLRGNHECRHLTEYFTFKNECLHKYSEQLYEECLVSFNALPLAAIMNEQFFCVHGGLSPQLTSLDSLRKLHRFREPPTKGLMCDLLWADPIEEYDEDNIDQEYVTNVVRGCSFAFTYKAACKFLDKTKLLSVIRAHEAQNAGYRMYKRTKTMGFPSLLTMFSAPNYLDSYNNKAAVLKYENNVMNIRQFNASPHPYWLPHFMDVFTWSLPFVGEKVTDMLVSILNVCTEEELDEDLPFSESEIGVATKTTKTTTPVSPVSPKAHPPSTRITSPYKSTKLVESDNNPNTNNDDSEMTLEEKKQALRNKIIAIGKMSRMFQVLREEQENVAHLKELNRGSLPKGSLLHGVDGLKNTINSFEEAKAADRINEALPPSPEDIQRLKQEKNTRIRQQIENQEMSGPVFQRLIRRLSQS
In words: blockers of CaCl2-induced CDRE-lacZ signaling – S. cerevisiae, luminescence, secondary, dose response (AID 2388).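 Further: yeast reporter cells carrying a calcineurin-responsive lacZ construct stimulated with calcium chloride; luminescent beta-galactosidase reporter signal in whole cells rather than isolated phosphatase activity; potency for inhibition where a drop in reporter signal means calcineurin blockade.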 It counts as functional, cell-based.

The target in experiment [5] is Envelope glycoprotein gp160 (Human immunodeficiency virus 1, UniProt Q6QLK5). In words: cell-free HIV fusion peptide-binding blockers – biochemical, uHTS, fluorescence dequenching, […] (AID 1986).
Experiment [6] deals with Caspase-7 (Homo sapiens, UniProt P55210). Nature of the experiment: activation of caspase-7 zymogen – biochemical, absorbance, counter-screen for procaspase-3 activator project, dose response (AID 489013).
Experiment [7] concerns the target T2, Caspase-3 (Homo sapiens, UniProt P42574).
T2 sequence (P42574 whole entry): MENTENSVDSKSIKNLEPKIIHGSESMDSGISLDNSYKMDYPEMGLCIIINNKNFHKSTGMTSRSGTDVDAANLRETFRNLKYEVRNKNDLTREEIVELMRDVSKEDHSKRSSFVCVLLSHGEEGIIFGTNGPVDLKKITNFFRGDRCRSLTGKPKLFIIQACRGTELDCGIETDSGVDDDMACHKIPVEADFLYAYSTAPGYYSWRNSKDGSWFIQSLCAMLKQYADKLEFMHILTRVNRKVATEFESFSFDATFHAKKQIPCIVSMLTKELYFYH
In words: activation of caspase-3 zymogen – biochemical, absorbance, dose response (AID 489014).

Experiment [8] can be described thus: NIH3T3 cell viability loss – ATP luminescence, mouse fibroblasts, counter-screen, dose response (AID 2010).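 Further: cells exposed to compound for about 90 hours before reading.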 Type of experiment: functional, cell-based. (The purpose of a counterscreen is to sort out artefacts and off-target activity.)
A short description of experiment [9]: Trypanosoma cruzi growth suppression in host cells – NIH3T3 host cells, beta-gal luminescence, confirmation (AID 2044).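 Further: intracellular parasites grown in NIH/3T3 mouse fibroblasts as host cells; luminescent beta-galactosidase reporter signal from transgenic T. cruzi replicating inside host cells; inhibitors lower the luminescence signal.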 It counts as functional, cell-based.
Experiment [10] addresses C-C chemokine receptor type 6 (Homo sapiens, UniProt P51684). Nature of the experiment: antagonism of CCR6 beta-arrestin recruitment – cell-based, luminescent beta-arrestin readout, dose response (AID 504728). It counts as functional. On the technique in general: Recruitment of arrestin is a read-out of receptor activation apart from second messengers.
In experiment [11] the target is Induced myeloid leukemia cell differentiation protein Mcl-1 (Homo sapiens, UniProt Q07820). It counts as functional.
Experiment [12] addresses T3, Polyadenylate-binding protein 1 (Homo sapiens, UniProt P11940). Nature of the experiment: MLLE domain peptide-binding blockers, IC50 – biochemical, fluorescence polarization, FITC-PAM2 peptide, dose response (AID 602259). It counts as functional. The note with it: read-out: IC50_Mean. Background: Fluorescence polarisation rises when a labelled molecule tumbles more slowly, as on binding a larger partner.

The nature of experiment [13]: HGIII-sPLA2 enzyme inhibition potency – biochemical, QFRET, IC50, dose response (AID 743457).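 Further: green fluorescence rise as the enzyme cleaves BODIPY PC-A2 in liposomes.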
Experiment [14] can be described thus: viability loss in THP-1 monocytes – THP-1 cells, cytotoxicity control for Vif-APOBEC3G degradation inhibitor project, dose response (AID 1117359). It counts as functional. As to conditions: THP-1.
In experiment [15] the target is Eukaryotic translation initiation factor 4E (Mus musculus, UniProt P63073). Nature of the experiment: blockers of eIF4G binding by eIF4E – biochemical, TR-FRET, dose response (AID 855).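 Further: potency for disrupting eIF4E binding to eIF4GI seen as loss of FRET.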 It counts as functional.
Experiment [16] concerns the target T3, Polyadenylate-binding protein 1. Nature of the experiment: MLLE binding blockers, Cy5 peptide tracer – biochemical, fluorescence polarization, Cy5-PAM2 peptide, secondary, miRNA deadenylation inhibitor project, dose response (AID 602260). Type of experiment: functional. As to conditions: read-out: IC50_Mean.
Experiment [17] addresses T4, Hexokinase HKDC1 (Homo sapiens, UniProt Q2TB90).
T4 sequence (Q2TB90 whole entry): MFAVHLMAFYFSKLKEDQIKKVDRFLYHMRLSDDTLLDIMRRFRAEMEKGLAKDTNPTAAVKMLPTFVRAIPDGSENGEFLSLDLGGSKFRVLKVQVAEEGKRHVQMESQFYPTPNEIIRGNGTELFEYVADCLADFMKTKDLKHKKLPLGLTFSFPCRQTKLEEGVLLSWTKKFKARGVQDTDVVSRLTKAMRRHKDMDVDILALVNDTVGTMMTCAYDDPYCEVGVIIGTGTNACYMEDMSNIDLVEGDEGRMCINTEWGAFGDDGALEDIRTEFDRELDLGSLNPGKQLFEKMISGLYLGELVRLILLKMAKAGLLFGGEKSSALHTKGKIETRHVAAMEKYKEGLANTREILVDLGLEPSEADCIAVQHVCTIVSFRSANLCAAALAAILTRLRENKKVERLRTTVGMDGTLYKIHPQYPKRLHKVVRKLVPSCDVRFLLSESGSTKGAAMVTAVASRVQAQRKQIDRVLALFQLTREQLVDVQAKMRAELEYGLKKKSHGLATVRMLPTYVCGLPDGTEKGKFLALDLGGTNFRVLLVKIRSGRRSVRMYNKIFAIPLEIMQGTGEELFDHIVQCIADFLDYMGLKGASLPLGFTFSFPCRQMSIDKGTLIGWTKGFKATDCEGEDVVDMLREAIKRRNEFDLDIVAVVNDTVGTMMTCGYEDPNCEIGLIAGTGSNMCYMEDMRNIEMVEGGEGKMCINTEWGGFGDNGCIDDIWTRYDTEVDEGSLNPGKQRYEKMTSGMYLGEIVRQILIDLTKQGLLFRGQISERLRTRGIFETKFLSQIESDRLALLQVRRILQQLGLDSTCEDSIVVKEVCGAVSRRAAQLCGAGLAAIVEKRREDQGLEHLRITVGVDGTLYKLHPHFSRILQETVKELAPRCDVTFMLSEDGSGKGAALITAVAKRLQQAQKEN
Nature of the experiment: inhibition of HKDC1 glucose phosphorylation – biochemical, W721R variant, dose response (AID 504729). It counts as functional.

For experiment [18], the target named is Beta-galactosidase (Escherichia coli, UniProt Q8VNN2). In words: detection-enzyme interference by beta-gal modulators – biochemical, E. coli enzyme, set 3, artefact control for CCR6 antagonist project, dose response (AID 504712). Type of experiment: functional.
The nature of experiment [19]: THP-1 cell cytotoxicity, dose response, cytotoxicity control for non-replicating M. tuberculosis project (AID 489025). It counts as functional.
Experiment [20] addresses Glucose-6-phosphate 1-dehydrogenase (Homo sapiens, UniProt P11413). Nature of the experiment: inhibition of Homo sapiens G6PD, dose series – biochemical, fluorescence, selectivity assay for P. falciparum G6PD inhibitor project, dose response (AID 504792). Type of experiment: functional.
Experiment [21] addresses T5, Delta-type opioid receptor (Homo sapiens, UniProt P41143). In words: DOR agonists, SAR follow-up, image-based (AID 2370). It counts as functional.
In experiment [22] the target is T5, Delta-type opioid receptor. In words: delta opioid receptor blockers – image-based, SAR follow-up (AID 2357). It counts as functional.
Experiment [23] concerns the target T6, Kappa-type opioid receptor (Homo sapiens, UniProt P41145). Type of experiment: functional.
The target of experiment [24] is T7, Mu-type opioid receptor (Homo sapiens, UniProt P35372). In words: HTS Image-Based Screen for Agonists of the MOR Receptor. [Related pubchem assays (depositor defined):AID1777, AID1785, AID1786, AID2133]. It counts as functional.
In experiment [25] the target is T6, Kappa-type opioid receptor. Type of experiment: functional. This is another data set of the same source.
For experiment [26], the target named is T6, Kappa-type opioid receptor. In words: kappa opioid receptor blockers, image-based, SAR follow-up (AID 2348). Type of experiment: functional.
Experiment [27] concerns the target T5, Delta-type opioid receptor. Nature of the experiment: HTS Image-Based Screen for Agonists of the DOR Receptor. [Related pubchem assays (depositor defined):AID1777, AID1786, AID2133]. Type of experiment: functional.
Experiment [28] has as its target T7, Mu-type opioid receptor. In words: mu opioid receptor blockers – image-based, SAR follow-up (AID 2420).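 Further: compounds added before stimulation of receptor with agonist DAMGO.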 It counts as functional.
In experiment [29] the target is T7, Mu-type opioid receptor. In words: mu opioid receptor activators, image-based, SAR follow-up (AID 2352). Type of experiment: functional.
Experiment [30] addresses T5, Delta-type opioid receptor. In words: HTS Image-Based Screen for Antagonists of the DOR Receptor. [Related pubchem assays (depositor defined):AID1777, AID1785, AID1786, AID2133]. Type of experiment: functional.
The nature of experiment [31]: viability of uninfected HEp-2 cells – cell-based, HTS, cytotoxicity control for RSV inhibitor project, dose response (AID 2410). It counts as functional. The note with it: human respiratory syncytial virus.

Molecules are shown by their SMILES. Active and inactive are the calls of the source. Where only a bound is given, the exact number is not on record here.

T5 sequence (P41143 whole entry): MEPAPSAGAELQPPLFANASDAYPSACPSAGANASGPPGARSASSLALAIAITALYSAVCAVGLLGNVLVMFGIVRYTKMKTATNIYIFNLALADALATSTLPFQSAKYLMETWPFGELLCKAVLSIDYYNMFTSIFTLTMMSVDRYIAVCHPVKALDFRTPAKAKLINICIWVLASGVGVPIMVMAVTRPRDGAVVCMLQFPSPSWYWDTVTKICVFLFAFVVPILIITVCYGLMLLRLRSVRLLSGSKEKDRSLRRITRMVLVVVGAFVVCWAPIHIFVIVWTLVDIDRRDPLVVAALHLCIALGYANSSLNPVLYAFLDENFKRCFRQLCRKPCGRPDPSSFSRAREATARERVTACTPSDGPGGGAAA
T6 sequence (P41145 whole entry): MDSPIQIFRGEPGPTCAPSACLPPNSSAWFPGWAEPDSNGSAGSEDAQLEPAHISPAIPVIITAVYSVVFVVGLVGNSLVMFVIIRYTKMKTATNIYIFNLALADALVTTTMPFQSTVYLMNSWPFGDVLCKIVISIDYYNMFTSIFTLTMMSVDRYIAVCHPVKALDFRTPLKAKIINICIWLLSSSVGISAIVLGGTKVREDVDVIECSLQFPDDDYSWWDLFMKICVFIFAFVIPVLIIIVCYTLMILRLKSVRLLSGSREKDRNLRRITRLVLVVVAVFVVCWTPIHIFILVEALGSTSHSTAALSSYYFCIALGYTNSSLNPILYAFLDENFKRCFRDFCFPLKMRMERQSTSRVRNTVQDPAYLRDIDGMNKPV
T7 sequence (P35372 whole entry): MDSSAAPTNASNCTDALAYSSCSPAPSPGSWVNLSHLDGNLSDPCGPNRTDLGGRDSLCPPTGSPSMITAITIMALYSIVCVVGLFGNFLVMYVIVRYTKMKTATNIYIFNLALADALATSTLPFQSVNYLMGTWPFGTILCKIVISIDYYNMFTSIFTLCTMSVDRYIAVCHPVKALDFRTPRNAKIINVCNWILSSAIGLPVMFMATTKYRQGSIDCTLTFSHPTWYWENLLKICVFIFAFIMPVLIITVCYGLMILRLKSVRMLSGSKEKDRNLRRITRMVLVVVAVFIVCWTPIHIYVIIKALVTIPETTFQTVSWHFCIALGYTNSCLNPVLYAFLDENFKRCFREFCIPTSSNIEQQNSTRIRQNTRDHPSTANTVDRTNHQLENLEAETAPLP
T3 sequence (P11940 whole entry, the tested form may be a part): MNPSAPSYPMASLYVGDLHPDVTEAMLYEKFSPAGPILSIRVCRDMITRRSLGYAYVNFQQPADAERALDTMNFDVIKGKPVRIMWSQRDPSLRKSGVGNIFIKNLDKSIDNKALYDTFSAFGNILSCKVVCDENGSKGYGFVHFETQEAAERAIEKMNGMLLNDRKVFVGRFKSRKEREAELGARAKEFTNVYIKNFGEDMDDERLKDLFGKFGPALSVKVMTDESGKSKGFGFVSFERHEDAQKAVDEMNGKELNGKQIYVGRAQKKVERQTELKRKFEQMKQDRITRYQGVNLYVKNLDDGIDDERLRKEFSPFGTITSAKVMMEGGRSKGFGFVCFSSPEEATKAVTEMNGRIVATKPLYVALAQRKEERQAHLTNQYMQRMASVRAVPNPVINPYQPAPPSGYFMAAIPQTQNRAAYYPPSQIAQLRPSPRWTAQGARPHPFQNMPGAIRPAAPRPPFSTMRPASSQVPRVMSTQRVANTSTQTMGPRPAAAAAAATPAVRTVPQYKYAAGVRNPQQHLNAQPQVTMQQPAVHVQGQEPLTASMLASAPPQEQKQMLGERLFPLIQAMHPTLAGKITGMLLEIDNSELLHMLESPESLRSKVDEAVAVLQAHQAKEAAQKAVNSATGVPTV
Sequence of Induced myeloid leukemia cell differentiation protein Mcl-1 (Q07820 whole entry, the tested form may be a part): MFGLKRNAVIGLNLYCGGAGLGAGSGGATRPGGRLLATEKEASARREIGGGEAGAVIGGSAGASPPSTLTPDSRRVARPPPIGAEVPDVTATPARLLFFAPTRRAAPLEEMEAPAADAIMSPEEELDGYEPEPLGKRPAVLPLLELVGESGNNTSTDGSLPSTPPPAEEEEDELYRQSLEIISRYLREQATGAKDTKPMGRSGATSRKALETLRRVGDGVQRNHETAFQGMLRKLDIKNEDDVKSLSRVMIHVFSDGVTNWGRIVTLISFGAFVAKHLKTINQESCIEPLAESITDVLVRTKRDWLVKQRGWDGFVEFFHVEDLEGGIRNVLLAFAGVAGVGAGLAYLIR
Sequence of Glucose-6-phosphate 1-dehydrogenase (P11413 whole entry): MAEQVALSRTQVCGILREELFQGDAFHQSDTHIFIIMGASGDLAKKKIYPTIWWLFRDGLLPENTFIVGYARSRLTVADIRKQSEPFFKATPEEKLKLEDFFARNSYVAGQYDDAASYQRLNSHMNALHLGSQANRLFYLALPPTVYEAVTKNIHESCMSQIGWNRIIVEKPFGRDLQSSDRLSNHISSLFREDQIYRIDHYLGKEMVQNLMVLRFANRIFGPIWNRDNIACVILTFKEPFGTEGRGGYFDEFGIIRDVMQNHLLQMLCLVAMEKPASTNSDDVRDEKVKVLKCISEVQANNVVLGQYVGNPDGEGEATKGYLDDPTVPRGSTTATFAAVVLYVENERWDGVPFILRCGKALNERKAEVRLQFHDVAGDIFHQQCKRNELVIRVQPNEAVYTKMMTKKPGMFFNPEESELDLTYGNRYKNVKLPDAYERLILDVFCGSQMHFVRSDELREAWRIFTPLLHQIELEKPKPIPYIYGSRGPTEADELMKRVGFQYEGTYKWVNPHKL
Sequence of C-C chemokine receptor type 6 (P51684 whole entry): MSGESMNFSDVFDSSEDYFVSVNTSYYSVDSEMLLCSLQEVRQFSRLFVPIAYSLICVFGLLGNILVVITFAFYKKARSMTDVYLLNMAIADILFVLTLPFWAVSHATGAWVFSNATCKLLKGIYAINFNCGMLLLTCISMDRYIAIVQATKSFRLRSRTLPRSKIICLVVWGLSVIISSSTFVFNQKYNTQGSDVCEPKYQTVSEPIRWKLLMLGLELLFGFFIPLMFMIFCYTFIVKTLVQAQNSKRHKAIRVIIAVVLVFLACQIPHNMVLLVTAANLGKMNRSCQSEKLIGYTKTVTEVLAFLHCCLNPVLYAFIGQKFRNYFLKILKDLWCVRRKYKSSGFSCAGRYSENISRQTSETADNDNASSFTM
Sequence of Caspase-7 (P55210 24-198 limits assumed): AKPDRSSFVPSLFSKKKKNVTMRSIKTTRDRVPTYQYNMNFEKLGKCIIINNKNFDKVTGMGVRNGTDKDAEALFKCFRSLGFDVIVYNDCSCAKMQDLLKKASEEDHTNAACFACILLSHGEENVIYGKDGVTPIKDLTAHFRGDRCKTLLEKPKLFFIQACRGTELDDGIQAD
Sequence of Caspase-7 (P55210 207-303 limits assumed): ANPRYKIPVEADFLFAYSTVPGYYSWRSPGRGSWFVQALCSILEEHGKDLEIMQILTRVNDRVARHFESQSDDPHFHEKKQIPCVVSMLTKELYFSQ
Sequence of Beta-galactosidase (Q8VNN2 whole entry): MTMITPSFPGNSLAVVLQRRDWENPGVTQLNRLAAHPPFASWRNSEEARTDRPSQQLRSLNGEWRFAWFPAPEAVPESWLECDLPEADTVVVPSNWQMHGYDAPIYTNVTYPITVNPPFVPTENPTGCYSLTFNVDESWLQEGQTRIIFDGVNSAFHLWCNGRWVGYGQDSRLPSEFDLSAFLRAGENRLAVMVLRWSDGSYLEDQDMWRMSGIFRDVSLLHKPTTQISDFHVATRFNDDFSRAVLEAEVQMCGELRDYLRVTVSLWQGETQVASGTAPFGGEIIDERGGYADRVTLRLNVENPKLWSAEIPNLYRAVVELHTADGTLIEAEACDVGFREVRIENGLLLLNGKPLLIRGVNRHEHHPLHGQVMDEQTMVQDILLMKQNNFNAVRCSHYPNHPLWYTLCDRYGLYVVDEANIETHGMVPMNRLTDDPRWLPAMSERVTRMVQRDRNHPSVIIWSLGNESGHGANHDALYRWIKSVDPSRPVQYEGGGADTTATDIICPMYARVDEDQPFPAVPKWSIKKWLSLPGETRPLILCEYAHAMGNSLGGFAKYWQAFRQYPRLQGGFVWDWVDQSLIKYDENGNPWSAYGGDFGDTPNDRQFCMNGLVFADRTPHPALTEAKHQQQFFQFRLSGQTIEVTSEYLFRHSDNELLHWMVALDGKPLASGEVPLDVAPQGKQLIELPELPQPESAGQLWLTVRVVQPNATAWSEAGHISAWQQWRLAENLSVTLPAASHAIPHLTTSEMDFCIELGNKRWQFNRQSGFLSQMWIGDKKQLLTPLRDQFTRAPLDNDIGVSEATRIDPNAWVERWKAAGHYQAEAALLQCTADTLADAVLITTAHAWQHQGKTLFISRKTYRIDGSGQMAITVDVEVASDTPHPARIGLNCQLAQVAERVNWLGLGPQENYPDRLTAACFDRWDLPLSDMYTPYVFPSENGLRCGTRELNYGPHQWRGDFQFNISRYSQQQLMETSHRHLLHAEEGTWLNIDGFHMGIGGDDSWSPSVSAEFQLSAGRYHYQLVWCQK
Sequence of Eukaryotic translation initiation factor 4E (P63073 whole entry): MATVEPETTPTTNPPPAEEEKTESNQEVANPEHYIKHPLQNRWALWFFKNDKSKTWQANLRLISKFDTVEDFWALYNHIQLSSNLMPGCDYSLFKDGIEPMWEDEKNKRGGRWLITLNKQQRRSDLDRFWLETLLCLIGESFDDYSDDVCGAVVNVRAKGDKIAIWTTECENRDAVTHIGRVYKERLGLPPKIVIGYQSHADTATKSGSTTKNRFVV

`CC(C)CCN1C(=O)c2ccc(C(=O)Nc3ccc(Br)cc3C(=O)O)cc2C1=O`: the EC50 in [1] is 2.46 µM (active); in [2] it was 15.6 µM (active); in [3], > 160 µM (inactive); in experiment [4] it was > 180 µM (inactive). Moreover, in experiment [5], the IC50 was > 99 µM (inactive).

In the case of `Cc1ccc(C)c(N(CC(=O)Nc2ccc(-c3nc4ccc(C)cc4s3)cc2)S(C)(=O)=O)c1`, the EC50 in experiment [6] was > 85.2 µM (inactive); in experiment [7], > 85.2 µM (inactive); in experiment [8], > 60 µM (inconclusive); in experiment [9], 2.78 µM (active).

Regarding `CNCc1ccccc1Sc1cc(O)ccc1O`, the IC50 in experiment [10] is 23.5 µM (inactive); in experiment [11], 4.5 µM (active); in [12], > 66 µM (inactive); in [13] it was > 122 µM (inactive); in [15] it was > 64 µM (inactive); in [16], > 66 µM (inactive). For the same compound, the IC50 in [17] is 3.35 µM (active); in experiment [18] it was > 66.6 µM (inactive); in [20], 26.9 µM (inactive). Besides, the CC50 was > 40 µM (active) in experiment [14] and 38.8 µM (active) in experiment [19].

Take `Clc1cccc(CSc2nnc(-c3ccccn3)n2Cc2ccco2)c1`: the EC50 in experiment [21] is > 32 µM (inactive); in experiment [23], 8.35 µM; in [24], > 32 µM (inactive); in [25], 5.6 µM; in experiment [27], > 32 µM (inactive); in [29], > 32 µM (inactive). For the same compound, the IC50 in experiment [22], in experiment [26], in experiment [28] and in experiment [30] was > 32 µM (inactive) throughout. In addition, the CC50 in [31] is 15.1 µM (active).
